Columns and labels:
[1] = tested on: MCF7 human breast cancer cell line; assay: SRB antiproliferative assay, MCF7; format: cell-based
Experimental: (§1) We determined the effect of various structural factors in the substrates on the antiproliferative activity against those selected to the study cell lines: the location and/or the presence of the prenyl group, the chalcone/flavanone skeleton and the presence of an O-methyl group at C-5 in flavanones. Flavonoids presented in Figure 1 were tested for the antiproliferative activity towards eight cancer cell lines including estrogen-dependent (MCF7 and T-47D) and two normal ones (HLMEC and MCF 10A). The in vitro antiproliferative activity was measured using SRB assay. The results are presented in Figure 2 (and in the supplement in Table S1). The antiproliferative activity was measured separately for each of the experiments and given as the average IC50 (the concentration of tested compound which inhibits 50% of the cells population). Cisplatin (CP), a common anticancer drug, was used as a positive control.
(§2) The following established in vitro cell lines were applied: MCF7, T-47D, MDA-MB-231 (human breast cancer cell line), A2780 (human ovarian cancer cell line), A2780cis (human cisplatin-resistant ovarian cancer cell line), PC-3 and DU 145 (human prostate cancer cell lines), HT-29 (human colon cancer cell line), HLMEC (human lung microvascular endothelial cell line), and MCF 10A (human mammary epithelial cells line).
(§3) The cell lines: MDA-MB-231, HT-29, PC-3, DU 145, and MCF 10A were obtained from the American Type Culture Collection (Rockville, MD, USA), MCF7, T-47D, A2780, A2780cis from the European Collection Cell Cultures (Sigma-Aldrich, Chemie GmbH, Steinheim, Germany), while the HLMEC cell line was obtained by M. Paprocka from the institute. All cell lines are being maintained in the Institute of Immunology and Experimental Therapy (Wrocław, Poland). DU 145 and MCF7 cells were cultured in Eagle medium (supplemented with 4mM L-glutamine, 10% fetal bovine serum, 1 mM sodium pyruvate for DU 145 cells or 2 mM L-glutamine, 1% mem non-essential amino acid solution and 8 µg/mL insulin and 10% fetal bovine serum for MCF7). […] HT-29 and T-47D cell lines were cultured in RPMI 1640 + OPTI-MEM medium supplemented with 2 mM L-glutamine, 5% fetal bovine serum and 8 µg/mL of insulin (T-47D) or 1 mM sodium pyruvate (HT-29). MDA-MB-231, PC-3 and HLMEC cell lines were cultured in RPMI 1640 medium supplemented with 2 mM L-glutamine and 10% fetal bovine serum. Medium for MCF 10A cell line consisted of F-12 nutrient mixture supplemented with cholera toxin (0.05 µg/mL), insulin (10 µg/mL), hydrocortisone (0.5 µg/mL), 5% horse serum, and EGFH (20 ng/mL). All the culture media contained antibiotics: 100 units/mL penicillin (Polfa Tarchomin SA, Warsaw, Poland), and 100 µg/mL streptomycin (Sigma-Aldrich, Chemie GmbH, Steinheim, Germany). All cell lines were grown at 37 °C with 5% CO2 humidified atmosphere.
(§4) Twenty-four hours before the incubation with the tested compounds, the cells were seeded in 96-plates (Sarstedt, Germany) at a density of 1 × 10^4 cells per well (0.75 × 10^4 per well for MCF7 and 1 × 10^3 per well for HLMEC) in 100 µL of a culture medium.
(§5) Each agent at each concentration (from 0.1 to 100 µg/mL) was tested in a single experiment, which was repeated four to five times. […] Cisplatin was used as a reference drug.
(§6) The results were calculated as the IC50 (inhibitory concentration 50%)—the concentration of the tested compound which inhibits 50% of the cells population. IC50 values were calculated for each experiment separately and mean values ± SD are presented in the Table S1 in the Supplementary Materials. Each compound at each concentration was tested in triplicate in a single experiment, which was repeated four to five times.
(§7) The cells were fixed in situ by gently adding cold 50% trichloroacetic acid (50 µL per well). The plates were incubated at 4 °C for 1h and then washed five times with tap water. […]

[2] = tested on: T-47D human breast cancer cell line; assay: SRB antiproliferative assay, T-47D; format: cell-based
Experimental: as §1, §2, §3, §4, §5, §6, §7

[3] = tested on: MDA-MB-231 human breast cancer cell line; assay: SRB antiproliferative assay, MDA-MB-231; format: cell-based
Experimental: as §1, §2, §3, §4, §5, §6, §7

[4] = tested on: HT-29 human colon cancer cell line; assay: SRB antiproliferative assay, HT-29; format: cell-based
[5] = tested on: A2780 human ovarian cancer cell line; assay: SRB antiproliferative assay, A2780; format: cell-based
Experimental: as §1, §2, §3, §4, §5, §6, §7

[6] = tested on: A2780cis human cisplatin-resistant ovarian cancer cell line; assay: SRB antiproliferative assay, A2780cis; format: cell-based
Experimental: as §1, §2, §3, §4, §5, §6, §7

[7] = tested on: PC-3 human prostate cancer cell line; assay: SRB antiproliferative assay, PC-3; format: cell-based
Experimental: as §1, §2, §3, §4, §5, §6, §7

[8] = tested on: DU 145 human prostate cancer cell line; assay: SRB antiproliferative assay, DU 145; format: cell-based
Experimental: as §1, §2, §3, §4, §5, §6, §7

[9] = tested on: HLMEC human lung microvascular endothelial cell line; assay: SRB antiproliferative assay, HLMEC (normal); format: cell-based; details: Homo sapiens, Endothelial cell, 72 h, mean ± SD
[10] = tested on: MCF 10A human mammary epithelial cells line; assay: SRB antiproliferative assay, MCF 10A (normal); format: cell-based; details: Homo sapiens, MCF-10A, 72 h, mean ± SD, read-out: Normal cell line, IC50, MCF-10A
Experimental: as §1, §2, §3, §4, §5, §6, §7

human CYP1A1 = tested on: human CYP1A1; parameters: method as in PMID 10752639; details: cited from earlier work
human CYP1B1 = tested on: human CYP1B1; parameters: method as in PMID 10752639; details: cited from earlier work
[11] = breast tissue study of Bolca and co-workers; cited from earlier work
PC-3 cell line = tested on: PC-3 cell line; parameters: method as in PMID 23434138; details: earlier study; cited from earlier work

COc1cc(O)c(CC=C(C)C)c(O)c1C(=O)/C=C/c1ccc(O)cc1 [XN, 3′-(3,3-dimethylallyl)-4,2′,4′-trihydroxy-6′-methoxychalcone]
IC50 ([1]; Homo sapiens, MCF7, 72 h, SRB, 72 h, mean ± SD): 10.8 ± 0.32 µM | Selectivity index SIA, MCF-7 ([1]; IC50 HLMEC / IC50 MCF-7): 0.88 | Selectivity index SIB, MCF-7 ([1]; IC50 MCF-10A / IC50 MCF-7): 5.16 | IC50 ([2]; Homo sapiens, T47D, SRB, 72 h, mean ± SD): 7.99 ± 2.77 µM | Selectivity index SIA, T-47D ([2]; IC50 HLMEC / IC50 T-47D): 1.20 | Selectivity index SIB, T-47D ([2]; IC50 MCF-10A / IC50 T-47D): 7.00 | IC50 ([3]; Homo sapiens, MDA-MB-231, SRB, 72 h, mean ± SD): 8.46 ± 3.19 µM | Selectivity index SIA, MDA-MB-231 ([3]; IC50 HLMEC / IC50 MDA-MB-231): 1.13 | Selectivity index SIB, MDA-MB-231 ([3]; IC50 MCF-10A / IC50 MDA-MB-231): 6.61 | IC50 ([4]; Homo sapiens, HT-29, SRB, 72 h, mean ± SD): 9.42 ± 0.25 µM | Selectivity index SIA, HT-29 ([4]; IC50 HLMEC / IC50 HT-29): 1.02 | Selectivity index SIB, HT-29 ([4]; IC50 MCF-10A / IC50 HT-29): 5.94 | IC50 ([5]; Homo sapiens, A2780, SRB, 72 h, mean ± SD, read-out: Cancer cell line, IC50, A-2780): 2.06 ± 1.03 µM | Selectivity index SIA, A-2780 ([5]; IC50 HLMEC / IC50 A-2780): 4.65 | Selectivity index SIB, A-2780 ([5]; IC50 MCF-10A / IC50 A-2780): 27.16 | SIA against A2780, times higher than the reference ([5]; ratio of SIA to SIA of cisplatin): 5-8 times | IC50 ([6]; Homo sapiens, A2780cis, SRB, 72 h, mean ± SD, read-out: Cancer cell line, IC50, A-2780cis): 8.21 ± 0.83 µM | Selectivity index SIA, A-2780cis ([6]; IC50 HLMEC / IC50 A-2780cis): 1.17 | Selectivity index SIB, A-2780cis ([6]; IC50 MCF-10A / IC50 A-2780cis): 6.81 | IC50 ([7]; Homo sapiens, SRB, 72 h, mean ± SD): 8.61 ± 1.11 µM | Selectivity index SIA, PC-3 ([7]; IC50 HLMEC / IC50 PC-3): 1.11 | Selectivity index SIB, PC-3 ([7]; IC50 MCF-10A / IC50 PC-3): 6.50 | IC50 ([8]; Homo sapiens, DU-145, SRB, 72 h, mean ± SD): 6.49 ± 2.14 µM | Selectivity index SIA, Du-145 ([8]; IC50 HLMEC / IC50 Du-145): 1.47 | Selectivity index SIB, Du-145 ([8]; IC50 MCF-10A / IC50 Du-145): 8.62 | IC50 [9]: 9.57 ± 4.23 µM | IC50 [10]: 56 ± 27.3 µM | Inhibition of EROD activity of CYP1A1 (human CYP1A1): almost completely inhibited | Inhibition of EROD activity of CYP1B1 (human CYP1B1): almost completely inhibited | Glucuronidation [11]: > 90%

COc1cc(O)c(CCC(C)(C)O)c(O)c1C(=O)/C=C/c1ccc(O)cc1 [xanthohumol H, 3′-[3′-hydroxy-3”methylbutyl]-4,2′,4′-trihydroxy-6′-methoxychalcone]
Antiproliferative activity towards PC-3 cell line (PC-3 cell line): inactive

Source: PMC6278664, “Highly Cancer Selective Antiproliferative Activity of Natural Prenylated Flavonoids” (Molecules, 2018)
